ChEMBL document CHEMBL5131534, “Identification of 2-Pyridinylindole-Based Dual Antagonists of Toll-like Receptors 7 and 8 (TLR7/8)” (ACS Med Chem Lett, 2022)
pIC50: −log10 of the molar value.

Key:
[1] = Oral bioavailability in mouse blood at 15 mg/kg; assay type: ADME, organism-based
[2] = target: Toll-like receptor 4 (Homo sapiens, UniProt O00206); test: Antagonist activity at […] stimulated human TRL4 overexpressed in HEK293 cells assessed as inhibition of NF kappa B/Ap-1 activation preincubated with compound for 30 mins followed by […] stimulation measured after 22 hrs by SEAP reporter assay; assay type: cell-based
Toll-like receptor 4, sequence (O00206 whole entry): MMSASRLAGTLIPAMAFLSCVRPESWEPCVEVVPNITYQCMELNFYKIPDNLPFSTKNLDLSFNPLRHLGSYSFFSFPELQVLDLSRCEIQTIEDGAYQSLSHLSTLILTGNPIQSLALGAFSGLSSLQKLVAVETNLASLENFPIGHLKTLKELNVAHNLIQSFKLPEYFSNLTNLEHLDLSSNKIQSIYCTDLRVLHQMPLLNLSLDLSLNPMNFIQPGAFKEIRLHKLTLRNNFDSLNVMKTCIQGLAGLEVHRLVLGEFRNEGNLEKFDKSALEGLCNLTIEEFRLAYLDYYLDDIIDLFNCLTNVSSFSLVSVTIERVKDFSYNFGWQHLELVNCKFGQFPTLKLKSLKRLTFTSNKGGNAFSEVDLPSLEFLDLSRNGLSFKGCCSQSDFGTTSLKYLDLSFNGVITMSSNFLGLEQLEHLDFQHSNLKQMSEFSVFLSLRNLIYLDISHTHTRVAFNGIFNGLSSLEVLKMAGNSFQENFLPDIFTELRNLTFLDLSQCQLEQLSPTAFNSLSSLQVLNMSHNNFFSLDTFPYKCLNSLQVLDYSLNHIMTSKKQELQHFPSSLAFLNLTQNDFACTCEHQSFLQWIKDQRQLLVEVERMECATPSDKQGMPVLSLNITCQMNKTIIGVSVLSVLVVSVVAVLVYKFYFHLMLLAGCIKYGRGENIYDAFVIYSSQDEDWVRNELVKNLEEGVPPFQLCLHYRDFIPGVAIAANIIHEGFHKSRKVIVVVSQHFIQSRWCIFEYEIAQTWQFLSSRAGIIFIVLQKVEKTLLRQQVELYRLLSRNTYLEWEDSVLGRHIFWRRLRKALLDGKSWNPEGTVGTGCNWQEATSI

[3] = target: T1, Toll-like receptor 7 (Homo sapiens, UniProt Q9NYK1); test: Antagonist activity at gardiquimod stimulated TRL7 in human PBMC cells assessed as inhibition of IL-6 production by ELISA analysis; assay type: cell-based
T1 sequence (Q9NYK1 whole entry): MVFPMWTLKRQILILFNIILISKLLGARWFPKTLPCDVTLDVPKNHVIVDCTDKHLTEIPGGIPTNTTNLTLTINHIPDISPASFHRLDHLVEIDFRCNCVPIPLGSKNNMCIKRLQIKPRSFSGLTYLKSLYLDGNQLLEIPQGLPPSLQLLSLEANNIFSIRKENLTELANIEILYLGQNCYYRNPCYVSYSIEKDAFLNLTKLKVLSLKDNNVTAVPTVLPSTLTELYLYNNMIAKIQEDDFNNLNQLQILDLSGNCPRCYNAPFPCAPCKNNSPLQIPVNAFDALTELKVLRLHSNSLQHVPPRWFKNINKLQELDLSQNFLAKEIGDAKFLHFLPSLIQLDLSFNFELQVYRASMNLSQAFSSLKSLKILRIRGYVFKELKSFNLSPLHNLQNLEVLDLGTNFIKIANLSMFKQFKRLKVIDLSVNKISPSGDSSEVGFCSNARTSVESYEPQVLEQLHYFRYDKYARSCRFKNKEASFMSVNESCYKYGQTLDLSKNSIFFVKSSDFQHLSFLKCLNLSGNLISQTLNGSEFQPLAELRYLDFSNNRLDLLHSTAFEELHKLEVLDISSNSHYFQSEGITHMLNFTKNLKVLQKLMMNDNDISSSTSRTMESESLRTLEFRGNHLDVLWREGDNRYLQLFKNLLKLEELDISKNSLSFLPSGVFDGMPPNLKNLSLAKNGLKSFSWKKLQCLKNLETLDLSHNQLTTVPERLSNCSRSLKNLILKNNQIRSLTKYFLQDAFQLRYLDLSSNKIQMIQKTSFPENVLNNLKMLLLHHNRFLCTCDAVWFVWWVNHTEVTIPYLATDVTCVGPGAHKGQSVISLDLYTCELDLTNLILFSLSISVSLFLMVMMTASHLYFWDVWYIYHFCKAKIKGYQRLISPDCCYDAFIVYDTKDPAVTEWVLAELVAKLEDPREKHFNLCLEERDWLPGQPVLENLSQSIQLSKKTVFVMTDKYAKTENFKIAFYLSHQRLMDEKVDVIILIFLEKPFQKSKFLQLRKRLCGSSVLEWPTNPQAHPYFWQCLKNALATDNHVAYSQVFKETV

[4] = target: T1, Toll-like receptor 7; test: Antagonist activity at gardiquimod stimulated TRL7 in human whole blood assessed as inhibition of IL-6 production by ELISA analysis; assay type: tissue-based
[5] = Tmax in mouse blood at 15 mg/kg, po; assay type: ADME, organism-based
[6] = Cmax in mouse blood at 15 mg/kg, po; assay type: ADME, organism-based; set-up: dose 15 mg/kg, route po
[7] = Drug concentration in mouse blood at 15 mg/kg, po measured at 24 hrs; assay type: ADME, organism-based; conditions: read-out: Ct
[8] = AUClast in mouse blood at 5 mg/kg, iv; assay type: ADME, organism-based; set-up: time 0 - last, dose 5 mg/kg, route iv
[9] = In vivo antagonist activity at TRL7 in C57BL/6 mouse assessed as inhibition of gardiquimod stimulated IL-6 production at […],po for 30 minutes and followed by gardiquimod addition measured after 90 mins by ELISA analysis relative to control; assay type: functional; set-up: scale not given: the % may be the effect or the level left; conditions: time 120 min, 2 h
[10] = In vivo antagonist activity at TRL7 in C57BL/6 mouse assessed as inhibition of gardiquimod stimulated IL-6 production at 0.5 mg/kg,po for 30 minutes and followed by gardiquimod addition measured after 90 mins by ELISA analysis relative to control; assay type: functional; set-up: scale not given: the % may be the effect or the level left; conditions: time 120 min, 2 h
[11] = In vivo antagonist activity at TRL9 in C57BL/6 mouse assessed as inhibition of ODN1585 stimulated IL-6 production at 3 mg/kg,po for 30 minutes and followed by ODN1585 addition measured after 90 mins by ELISA analysis relative to control; assay type: functional; set-up: scale not given: the % may be the effect or the level left; conditions: time 120 min, 2 h
[12] = In vivo antagonist activity at TRL9 in C57BL/6 mouse assessed as inhibition of ODN1585 stimulated IL-6 production at 10 mg/kg,po for 30 minutes and followed by ODN1585 addition measured after 90 mins by ELISA analysis relative to control; assay type: functional; set-up: scale not given: the % may be the effect or the level left; conditions: time 120 min, 2 h
[13] = tested on: Mus musculus; test: Anti-inflammatory activity against MRL/Ipr Systemic lupus erythematosus mouse model assessed as inhibition of proteinuria at 0.1 mg/kg, po administered for 8 weeks and measured 24 hrs post final dose relative to control; assay type: functional; set-up: scale not given: the % may be the effect or the level left; conditions: time 1368 hrs
[14] = tested on: Mus musculus; test: Anti-inflammatory activity against MRL/Ipr Systemic lupus erythematosus mouse model assessed as inhibition of proteinuria at 1 mg/kg, po administered for 8 weeks and measured 24 hrs post final dose relative to control; assay type: functional; set-up: scale not given: the % may be the effect or the level left; conditions: time 1368 hrs
[15] = tested on: Mus musculus; test: Anti-inflammatory activity against MRL/Ipr Systemic lupus erythematosus mouse model assessed as inhibition of proteinuria at 5 mg/kg, po administered for 8 weeks and measured 24 hrs post final dose relative to control; assay type: functional; set-up: scale not given: the % may be the effect or the level left; conditions: time 1368 hrs
[16] = tested on: Mus musculus; test: Anti-inflammatory activity against MRL/Ipr Systemic lupus erythematosus mouse model assessed as inhibition of proteinuria at 20 mg/kg, po administered for 8 weeks and measured 24 hrs post final dose relative to control; assay type: functional; set-up: scale not given: the % may be the effect or the level left; conditions: time 1368 hrs
[17] = tested on: Mus musculus; test: Anti-inflammatory activity against MRL/Ipr Systemic lupus erythematosus mouse model assessed as inhibition of urinary NGAL at 0.1 mg/kg, po administered for 8 weeks and measured 24 hrs post final dose relative to control; assay type: functional; set-up: scale not given: the % may be the effect or the level left; conditions: time 1368 hrs
[18] = tested on: Mus musculus; test: Anti-inflammatory activity against MRL/Ipr Systemic lupus erythematosus mouse model assessed as inhibition of urinary NGAL at 1 mg/kg, po administered for 8 weeks and measured 24 hrs post final dose relative to control; assay type: functional; set-up: scale not given: the % may be the effect or the level left; conditions: time 1368 hrs
[19] = tested on: Mus musculus; test: Anti-inflammatory activity against MRL/Ipr Systemic lupus erythematosus mouse model assessed as inhibition of urinary NGAL at 5 mg/kg, po administered for 8 weeks and measured 24 hrs post final dose relative to control; assay type: functional; set-up: scale not given: the % may be the effect or the level left; conditions: time 1368 hrs
[20] = tested on: Mus musculus; test: Anti-inflammatory activity against MRL/Ipr Systemic lupus erythematosus mouse model assessed as inhibition of anti-Sm/RNP Ab titer at 1 mg/kg, po administered for 8 weeks and measured 24 hrs post final dose relative to control; assay type: functional; set-up: scale not given: the % may be the effect or the level left; conditions: time 1368 hrs
[21] = tested on: Mus musculus; test: Anti-inflammatory activity against MRL/Ipr Systemic lupus erythematosus mouse model assessed as inhibition of anti-dsDNA Ab titer at 5 mg/kg, po administered for 8 weeks and measured 24 hrs post final dose relative to control; assay type: functional; set-up: scale not given: the % may be the effect or the level left; conditions: time 1368 hrs
[22] = Toxicity in MRL/Ipr Systemic lupus erythematosus mouse model assessed as relative spleen weight at 5 mg/kg, po administered for 8 weeks and measured 24 hrs post final dose relative to control; assay type: organism-based; conditions: in vivo, 1368 h
[23] = Toxicity in MRL/Ipr Systemic lupus erythematosus mouse model assessed as drug tolerability at 0.1 to 20 mg/kg, po administered for 8 weeks and measured 24 hrs post final dose; assay type: organism-based; conditions: in vivo, 1368 h, dose 0.1-20 mg/kg

bioavailability [1]: 58%
pIC50 [2]: < 5.00
pIC50 [3]: 9.00
pIC50 [4]: 8.85
Tmax [5]: 5 h
Cmax [6]: 255 nM
concentration at 24 h [7]: 22 nM
AUC(0-t) [8]: 1.58 µM·h
SMILES: Cc1cc(-c2[nH]c3ccc(C4CCNCC4)cc3c2C(C)C)cc(C)n1
Activity [9]: 16%
Activity [10]: 98%
Activity [11]: 29%
Activity [12]: 33%
Activity [13]: 69%
Activity [14]: 92%
Activity [15]: 92%
Activity [16]: 93%
Activity [17]: 52%
Activity [18]: 69%
Activity [19]: 72%
Activity [20]: 84%
Activity [21]: 20%
Activity [22]: 49%
Activity [23]: Non-Toxic
